From PubChem BioAssay AID1963845 (Molecular Pharmacology Branch, DTP, NCI, 2024) come the findings set out here.

As a reminder, the viability, T/C is the ratio of treated to control.
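Further: luminescence signal used as surrogate measure of viable cells; spheroids exposed to compounds for seven days before readout; 100% = DMSO vehicle control viability as luminescence relative to vehicle.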

In one assay the test system is 429239-143-T-J1-PDC complex spheroid viability. Kind of assay: Anticancer human tumor 429239-143-T-J1-PDC patient-derived small cell lung carcinoma cell line growth inhibition [POLQ]. The settings on record: second compound 0.316 µM; first compound 0.316 µM; stronger effect = lower value. A digest of the protocol: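 Growth inhibition in 3D: complex spheroids (tumor PDC, HUVEC, MSC) treated with POLQ inhibitor combinations; where Cmax unknown, highest tested concentration 10 microM, except SN-38 at 1 microM.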
As to `CNCc1ccc(-c2[nH]c3cc(F)cc4c3c2CCNC4=O)cc1` + Cc1cccc(N(C)C(=O)C2C(O)CCN2c2nc(C)cc(C(F)(F)F)c2C#N)c1, the viability, T/C is 75.8%.

For `O=C(c1cc(Cc2n[nH]c(=O)c3ccccc23)ccc1F)N1CCN(C(=O)C2CC2)CC1` + Cc1cccc(N(C)C(=O)C2C(O)CCN2c2nc(C)cc(C(F)(F)F)c2C#N)c1, the viability, T/C is 81.9%.

The same assay, now with this note: second compound 0.316 µM; first compound 1 µM; stronger effect = lower value.
Consider `C=CCn1c(=O)c2cnc(Nc3ccc(N4CCN(C)CC4)cc3)nc2n1-c1cccc(C(C)(C)O)n1` + Cc1cccc(N(C)C(=O)C2C(O)CCN2c2nc(C)cc(C(F)(F)F)c2C#N)c1, for which the viability, T/C is 16.1%.

Regarding `CCCS(=O)(=O)Nc1ccc(F)c(C(=O)c2c[nH]c3ncc(-c4ccc(Cl)cc4)cc23)c1F` + Cc1cccc(N(C)C(=O)C2C(O)CCN2c2nc(C)cc(C(F)(F)F)c2C#N)c1, the viability, T/C is 94.1%.

With `CNCc1ccc(-c2[nH]c3cc(F)cc4c3c2CCNC4=O)cc1` + Cc1cccc(N(C)C(=O)C2C(O)CCN2c2nc(C)cc(C(F)(F)F)c2C#N)c1, the viability, T/C is 70.7%.

Consider `O=C(c1cc(Cc2n[nH]c(=O)c3ccccc23)ccc1F)N1CCN(C(=O)C2CC2)CC1` + Cc1cccc(N(C)C(=O)C2C(O)CCN2c2nc(C)cc(C(F)(F)F)c2C#N)c1, for which the viability, T/C was 61.3%.

Staying with this assay, now noted: second compound 0.316 µM; first compound 3.16 µM; stronger effect = lower value.
For the compound `CCCS(=O)(=O)Nc1ccc(F)c(C(=O)c2c[nH]c3ncc(-c4ccc(Cl)cc4)cc23)c1F` + Cc1cccc(N(C)C(=O)C2C(O)CCN2c2nc(C)cc(C(F)(F)F)c2C#N)c1, the viability, T/C was 87.5%.

Regarding `CNCc1ccc(-c2[nH]c3cc(F)cc4c3c2CCNC4=O)cc1` + Cc1cccc(N(C)C(=O)C2C(O)CCN2c2nc(C)cc(C(F)(F)F)c2C#N)c1, the viability, T/C is 40%.

Take `O=C(c1cc(Cc2n[nH]c(=O)c3ccccc23)ccc1F)N1CCN(C(=O)C2CC2)CC1` + Cc1cccc(N(C)C(=O)C2C(O)CCN2c2nc(C)cc(C(F)(F)F)c2C#N)c1: the viability, T/C was 35%.

The same assay, now with this note: second compound 0.316 µM; first compound 10 µM; stronger effect = lower value.
As to `CCCS(=O)(=O)Nc1ccc(F)c(C(=O)c2c[nH]c3ncc(-c4ccc(Cl)cc4)cc23)c1F` + Cc1cccc(N(C)C(=O)C2C(O)CCN2c2nc(C)cc(C(F)(F)F)c2C#N)c1, the viability, T/C is 79%.

As for `CNCc1ccc(-c2[nH]c3cc(F)cc4c3c2CCNC4=O)cc1` + Cc1cccc(N(C)C(=O)C2C(O)CCN2c2nc(C)cc(C(F)(F)F)c2C#N)c1, the viability, T/C is 22.7%.

On to `O=C(c1cc(Cc2n[nH]c(=O)c3ccccc23)ccc1F)N1CCN(C(=O)C2CC2)CC1` + Cc1cccc(N(C)C(=O)C2C(O)CCN2c2nc(C)cc(C(F)(F)F)c2C#N)c1, for which the viability, T/C is 18.7%.

Staying with this assay, now noted: second compound 1 µM; first compound 0.00316 µM; stronger effect = lower value.
Turning to `C=CCn1c(=O)c2cnc(Nc3ccc(N4CCN(C)CC4)cc3)nc2n1-c1cccc(C(C)(C)O)n1` + Cc1cccc(N(C)C(=O)C2C(O)CCN2c2nc(C)cc(C(F)(F)F)c2C#N)c1, the viability, T/C is 107%.

The assay is the same for the next values; noted with them: second compound 1 µM; first compound 0.01 µM; stronger effect = lower value.
With `C=CCn1c(=O)c2cnc(Nc3ccc(N4CCN(C)CC4)cc3)nc2n1-c1cccc(C(C)(C)O)n1` + Cc1cccc(N(C)C(=O)C2C(O)CCN2c2nc(C)cc(C(F)(F)F)c2C#N)c1, the viability, T/C is 100%.

The assay is the same for the next values; noted with them: second compound 1 µM; first compound 0.0316 µM; stronger effect = lower value.
In the case of `C=CCn1c(=O)c2cnc(Nc3ccc(N4CCN(C)CC4)cc3)nc2n1-c1cccc(C(C)(C)O)n1` + Cc1cccc(N(C)C(=O)C2C(O)CCN2c2nc(C)cc(C(F)(F)F)c2C#N)c1, the viability, T/C was 103%.

As to `CCCS(=O)(=O)Nc1ccc(F)c(C(=O)c2c[nH]c3ncc(-c4ccc(Cl)cc4)cc23)c1F` + Cc1cccc(N(C)C(=O)C2C(O)CCN2c2nc(C)cc(C(F)(F)F)c2C#N)c1, the viability, T/C is 103%.

`CNCc1ccc(-c2[nH]c3cc(F)cc4c3c2CCNC4=O)cc1` + Cc1cccc(N(C)C(=O)C2C(O)CCN2c2nc(C)cc(C(F)(F)F)c2C#N)c1: the viability, T/C is 86.7%.

In the case of `O=C(c1cc(Cc2n[nH]c(=O)c3ccccc23)ccc1F)N1CCN(C(=O)C2CC2)CC1` + Cc1cccc(N(C)C(=O)C2C(O)CCN2c2nc(C)cc(C(F)(F)F)c2C#N)c1, the viability, T/C is 83.5%.

Staying with this assay, now noted: second compound 1 µM; first compound 0.1 µM; stronger effect = lower value.
`C=CCn1c(=O)c2cnc(Nc3ccc(N4CCN(C)CC4)cc3)nc2n1-c1cccc(C(C)(C)O)n1` + Cc1cccc(N(C)C(=O)C2C(O)CCN2c2nc(C)cc(C(F)(F)F)c2C#N)c1: the viability, T/C was 111%.

As for `CCCS(=O)(=O)Nc1ccc(F)c(C(=O)c2c[nH]c3ncc(-c4ccc(Cl)cc4)cc23)c1F` + Cc1cccc(N(C)C(=O)C2C(O)CCN2c2nc(C)cc(C(F)(F)F)c2C#N)c1, the viability, T/C is 87.7%.

On to `CNCc1ccc(-c2[nH]c3cc(F)cc4c3c2CCNC4=O)cc1` + Cc1cccc(N(C)C(=O)C2C(O)CCN2c2nc(C)cc(C(F)(F)F)c2C#N)c1, for which the viability, T/C was 82.3%.

Take `O=C(c1cc(Cc2n[nH]c(=O)c3ccccc23)ccc1F)N1CCN(C(=O)C2CC2)CC1` + Cc1cccc(N(C)C(=O)C2C(O)CCN2c2nc(C)cc(C(F)(F)F)c2C#N)c1: the viability, T/C was 78.9%.

Staying with this assay, now noted: second compound 1 µM; first compound 0.316 µM; stronger effect = lower value.
For `C=CCn1c(=O)c2cnc(Nc3ccc(N4CCN(C)CC4)cc3)nc2n1-c1cccc(C(C)(C)O)n1` + Cc1cccc(N(C)C(=O)C2C(O)CCN2c2nc(C)cc(C(F)(F)F)c2C#N)c1, the viability, T/C was 89.6%.

`CCCS(=O)(=O)Nc1ccc(F)c(C(=O)c2c[nH]c3ncc(-c4ccc(Cl)cc4)cc23)c1F` + Cc1cccc(N(C)C(=O)C2C(O)CCN2c2nc(C)cc(C(F)(F)F)c2C#N)c1: the viability, T/C is 92.3%.

Regarding `CNCc1ccc(-c2[nH]c3cc(F)cc4c3c2CCNC4=O)cc1` + Cc1cccc(N(C)C(=O)C2C(O)CCN2c2nc(C)cc(C(F)(F)F)c2C#N)c1, the viability, T/C was 72.3%.

For `O=C(c1cc(Cc2n[nH]c(=O)c3ccccc23)ccc1F)N1CCN(C(=O)C2CC2)CC1` + Cc1cccc(N(C)C(=O)C2C(O)CCN2c2nc(C)cc(C(F)(F)F)c2C#N)c1, the viability, T/C is 80.6%.

Staying with this assay, now noted: second compound 1 µM; first compound 1 µM; stronger effect = lower value.
Consider `C=CCn1c(=O)c2cnc(Nc3ccc(N4CCN(C)CC4)cc3)nc2n1-c1cccc(C(C)(C)O)n1` + Cc1cccc(N(C)C(=O)C2C(O)CCN2c2nc(C)cc(C(F)(F)F)c2C#N)c1, for which the viability, T/C is 16%.

In the case of `CCCS(=O)(=O)Nc1ccc(F)c(C(=O)c2c[nH]c3ncc(-c4ccc(Cl)cc4)cc23)c1F` + Cc1cccc(N(C)C(=O)C2C(O)CCN2c2nc(C)cc(C(F)(F)F)c2C#N)c1, the viability, T/C is 91%.

Turning to `CNCc1ccc(-c2[nH]c3cc(F)cc4c3c2CCNC4=O)cc1` + Cc1cccc(N(C)C(=O)C2C(O)CCN2c2nc(C)cc(C(F)(F)F)c2C#N)c1, the viability, T/C was 66.2%.

In the case of `O=C(c1cc(Cc2n[nH]c(=O)c3ccccc23)ccc1F)N1CCN(C(=O)C2CC2)CC1` + Cc1cccc(N(C)C(=O)C2C(O)CCN2c2nc(C)cc(C(F)(F)F)c2C#N)c1, the viability, T/C is 63.4%.

The same assay, now with this note: second compound 1 µM; first compound 3.16 µM; stronger effect = lower value.
On to `CCCS(=O)(=O)Nc1ccc(F)c(C(=O)c2c[nH]c3ncc(-c4ccc(Cl)cc4)cc23)c1F` + Cc1cccc(N(C)C(=O)C2C(O)CCN2c2nc(C)cc(C(F)(F)F)c2C#N)c1, for which the viability, T/C is 90.3%.

With `CNCc1ccc(-c2[nH]c3cc(F)cc4c3c2CCNC4=O)cc1` + Cc1cccc(N(C)C(=O)C2C(O)CCN2c2nc(C)cc(C(F)(F)F)c2C#N)c1, the viability, T/C was 42.4%.

In the case of `O=C(c1cc(Cc2n[nH]c(=O)c3ccccc23)ccc1F)N1CCN(C(=O)C2CC2)CC1` + Cc1cccc(N(C)C(=O)C2C(O)CCN2c2nc(C)cc(C(F)(F)F)c2C#N)c1, the viability, T/C is 35.5%.

Staying with this assay, now noted: second compound 1 µM; first compound 10 µM; stronger effect = lower value.
Regarding `CCCS(=O)(=O)Nc1ccc(F)c(C(=O)c2c[nH]c3ncc(-c4ccc(Cl)cc4)cc23)c1F` + Cc1cccc(N(C)C(=O)C2C(O)CCN2c2nc(C)cc(C(F)(F)F)c2C#N)c1, the viability, T/C was 77.5%.

For `CNCc1ccc(-c2[nH]c3cc(F)cc4c3c2CCNC4=O)cc1` + Cc1cccc(N(C)C(=O)C2C(O)CCN2c2nc(C)cc(C(F)(F)F)c2C#N)c1, the viability, T/C was 24.4%.

Turning to `O=C(c1cc(Cc2n[nH]c(=O)c3ccccc23)ccc1F)N1CCN(C(=O)C2CC2)CC1` + Cc1cccc(N(C)C(=O)C2C(O)CCN2c2nc(C)cc(C(F)(F)F)c2C#N)c1, the viability, T/C is 18.6%.

Staying with this assay, now noted: second compound 3.16 µM; first compound 0.00316 µM; stronger effect = lower value.
For the compound `C=CCn1c(=O)c2cnc(Nc3ccc(N4CCN(C)CC4)cc3)nc2n1-c1cccc(C(C)(C)O)n1` + Cc1cccc(N(C)C(=O)C2C(O)CCN2c2nc(C)cc(C(F)(F)F)c2C#N)c1, the viability, T/C was 108%.

Staying with this assay, now noted: second compound 3.16 µM; first compound 0.01 µM; stronger effect = lower value.
In the case of `C=CCn1c(=O)c2cnc(Nc3ccc(N4CCN(C)CC4)cc3)nc2n1-c1cccc(C(C)(C)O)n1` + Cc1cccc(N(C)C(=O)C2C(O)CCN2c2nc(C)cc(C(F)(F)F)c2C#N)c1, the viability, T/C was 102%.

The same assay, now with this note: second compound 3.16 µM; first compound 0.0316 µM; stronger effect = lower value.
Take `C=CCn1c(=O)c2cnc(Nc3ccc(N4CCN(C)CC4)cc3)nc2n1-c1cccc(C(C)(C)O)n1` + Cc1cccc(N(C)C(=O)C2C(O)CCN2c2nc(C)cc(C(F)(F)F)c2C#N)c1: the viability, T/C is 97.7%.

Take `CCCS(=O)(=O)Nc1ccc(F)c(C(=O)c2c[nH]c3ncc(-c4ccc(Cl)cc4)cc23)c1F` + Cc1cccc(N(C)C(=O)C2C(O)CCN2c2nc(C)cc(C(F)(F)F)c2C#N)c1: the viability, T/C is 98.8%.

Turning to `CNCc1ccc(-c2[nH]c3cc(F)cc4c3c2CCNC4=O)cc1` + Cc1cccc(N(C)C(=O)C2C(O)CCN2c2nc(C)cc(C(F)(F)F)c2C#N)c1, the viability, T/C was 91.3%.

As for `O=C(c1cc(Cc2n[nH]c(=O)c3ccccc23)ccc1F)N1CCN(C(=O)C2CC2)CC1` + Cc1cccc(N(C)C(=O)C2C(O)CCN2c2nc(C)cc(C(F)(F)F)c2C#N)c1, the viability, T/C was 92.6%.
